Data taken from publication PMC10613524, “Rational design of the genetic code expansion toolkit for in vivo encoding of D-amino acids” (Frontiers in Genetics, 2023).

Target: T1, PylRSc (truncated PylRS, residues 185-454); mutant DFRSc (Methanosarcina mazei, UniProt Q8PWY1, S193R/N346G/C348Q/V401G, form not given)
T1 construct: gene pylS; C-terminal catalytic domain, residues 185-454, expressed in E. coli BL21 (DE3), Ni-NTA purified (DFRSc)
Test: ATP-[…]PPi exchange assay (amino acid activation)
Assay type: biochemical
Conditions: apparent, 2 mM ATP, 1 mM PPi, 10 mM MgCl2, pH 7.2, 37°C, header prints μM × 10^3, text mM, read-out: K M , μM × 10^3

T1 sequence (Q8PWY1 185-454 S193R/N346G/C348Q/V401G, form open): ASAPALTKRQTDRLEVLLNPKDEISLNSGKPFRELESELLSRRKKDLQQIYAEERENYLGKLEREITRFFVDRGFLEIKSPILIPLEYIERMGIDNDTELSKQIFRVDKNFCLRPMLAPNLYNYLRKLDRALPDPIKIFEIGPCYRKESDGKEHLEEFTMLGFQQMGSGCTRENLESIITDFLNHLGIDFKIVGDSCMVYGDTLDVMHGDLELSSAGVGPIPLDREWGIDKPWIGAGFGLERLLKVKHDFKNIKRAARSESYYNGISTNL

Km [µM]	SMILES
7120 ± 1670	N[C@@H](Cc1cccc(C(F)(F)F)c1)C(=O)O [compound 2, L-CF3-Phe]
5380 ± 1280	N[C@@H](Cc1cccc(Cl)c1)C(=O)O [compound 4, L-Cl-Phe]
9800 ± 1650	N[C@@H](Cc1cccc(Br)c1)C(=O)O [compound 6, L-Br-Phe]
